Assays:
Wistar rats = assay: Choleretic activity in the rat, bile fistula method; format: in vivo; conditions: for ml of bile flow ± s.e.: second series
Text: It is known that the primary effect of a choleretic agent is to increase the bile flow and the quantity of solid substances excreted with the bile. A good choleretic must provide this effect in a sufficiently intense and prolonged manner. In addition, as in the case of all drugs, it must have low acute toxicity and good general tolerability, but in particular must be free from toxic effects on the organ on which it is required to act, i.e. the liver, whether this is in a normal or pathological state. The analysis of the new product in comparison with the best known products for the same therapeutic use has therefore been focused on these aspects. The choleretic activity of the new product has been determined in the rat by using the bile fistula method. Wistar rats of both sexes and having a weight of between 180 and 240 g were used.
The animals, which were kept fasting for 12 hours but with free access to water, were narcotised by ethyl urethane in a dose of 1 g/kg by intra peritoneal or intramuscular injection.
After binding the animals to the retention bed, a median laparatomy was carried out, and when the bile duct had been isolated a cannula needle was inserted into it. A polythene tube was then inserted into those ani mals which were to receive the products intraduodenally, after which a su ture was carried out on the abdominal wall, and the bile was allowed to discharge for 30 minutes after inserting the cannula in the bile duct, so as to allow the discharge to become normal. The bile was then collec ted for one hour.
Having determined the volume of bile discharged during this first hour of collection (base volume), the products under examination were administered at the predetermined doses and by the predetermined methods. The bile excreted by the individual animals was then collected over each hour for a further six hours.
During the experiments, the animals were kept at ambient temperature of about 22°C, and at regular intervals of two hours received 10 ml/kg of physiological solution s.c.
The liquids were administered at a temperature of 37°C.
The bile flow and cholesterol excretion were determined on those bile fractions excreted by the animals over each hour starting from the base hour until the end of the experiment
The dry residue (R.So) was determined on the bile fraction excreted during the base hour and on the total bile fractions excreted during the sub sequent hours. For practical reasons, the determination of the dry residue and of the cholesterol (carried out by the Sperry & Webb method) were carried out on the pool of bile excreted by the entire group of animals subjected to the same treatment instead of on the bile fractions excreted by the individual animals (which was sometimes insufficient for determining the cholesterol).
In compiling the graphs, the differences between the choleresis in the treated animals and that in the controls was calculated over the considered time intervals, and expressed as a percentage of the base choleresis. For this calculation, the following formula was used: [formula] where Cn and C' represent the choleresis (in ml/kg/h for the bile flow, and in mg/kg/h for the dry residue) determined over the considered time interval for the group of treated animals and the group of controls respectively. Cb and C'b represent the base choleresis in the group of treated animals and group of controls respectively.
This index was calculated as the time for halving the maximum choleresis increase recorded under their effect.

[1] = Acute toxicity (DL50) in the rat; conditions: in vivo
Text: The determination in the rat gave the following values: • DL50 by oral administration = 1720 (1520-1921) mg/kg • DL50 by i.p. administration = 1339 (1270-1744) mg/kg

[2] = Acute toxicity (DL50) in mus musculus; conditions: in vivo
Text: The DL50 for the α-methyl-α-(3,4-dihydro-1-naphtyl)acetic acid (1.620) determined in the mus musculus had the following values: • DL50 by oral administration = 1663 (1451-1905) mg/kg • DL50 by i.^p. administration = 1383 (1226-1559) mg/kg

rat = assay: Prolonged administration for 180 consecutive days, tolerability; format: in vivo; conditions: 50 mg/kg/die for 180 consecutive days
[3] = ip, read-out: DL50 by i.p. administration
[4] = oral, read-out: DL50 by oral administration

For `CC(C(=O)O)C1=CCCc2ccccc21` (stereo not drawn) [1.620, α-methyl-α-(3,4-dihydro-1-naphthyl)-acetic acid], the Flow (Wistar rats; 25 mg/kg i.d., 0 (base hour)) was 2,66±0,16 ml/kg/h, the Flow (Wistar rats; 25 mg/kg i.d., 1 h) was 4,24±0,25 ml/kg/h and the Flow (Wistar rats; 25 mg/kg i.d., 2 h) was 3,21±0,10 ml/kg/h. The Flow (Wistar rats; 25 mg/kg i.d., 3 h) was 2,89±0,10 ml/kg/h, the Flow (Wistar rats; 25 mg/kg i.d., 4 h) was 2,44±0,15 ml/kg/h and the Flow (Wistar rats; 25 mg/kg i.d., 5 h) was 2,20±0,14 ml/kg/h. The Flow (Wistar rats; 25 mg/kg i.d., 6 h) was 1,68±0,05 ml/kg/h, the Flow (Wistar rats; 25 mg/kg p.o., 0 (base hour)) was 3,05±0,33 ml/kg/h and the Flow (Wistar rats; 25 mg/kg p.o., 1h) was 3,89±0,47 ml/kg/h. For the same compound, the Flow (Wistar rats; 25 mg/kg p.o., 2h) was 3,13±0,24 ml/kg/h, the Flow (Wistar rats; 25 mg/kg p.o., 3h) was 2,84±0,21 ml/kg/h and the Flow (Wistar rats; 25 mg/kg p.o., 4h) was 2,35±0,19 ml/kg/h. The Flow (Wistar rats; 25 mg/kg p.o., 5h) was 2,05±0,21 ml/kg/h, the Flow (Wistar rats; 25 mg/kg p.o., 6h) was 1,87±0,39 ml/kg/h and the Flow (Wistar rats; 50 mg/kg i.d., 0 (base hour)) was 2,04±0,11 ml/kg/h. For the same compound, the Flow (Wistar rats; 50 mg/kg i.d., 1 h) was 3,90±0,28 ml/kg/h, the Flow (Wistar rats; 50 mg/kg i.d., 2 h) was 3,57±0,16 ml/kg/h and the Flow (Wistar rats; 50 mg/kg i.d., 3 h) was 2,69±0,09 ml/kg/h. For the same compound, the Flow (Wistar rats; 50 mg/kg i.d., 4 h) was 2,20±0,07 ml/kg/h, the Flow (Wistar rats; 50 mg/kg i.d., 5 h) was 2,00±0,10 ml/kg/h and the Flow (Wistar rats; 50 mg/kg i.d., 6 h) was 1,63±0,08 ml/kg/h. For the same compound, the Flow (Wistar rats; 50 mg/kg p.o., 0 (base hour)) was 2,76±0,09 ml/kg/h, the Flow (Wistar rats; 50 mg/kg p.o., 1h) was 4,90±0,16 ml/kg/h and the Flow (Wistar rats; 50 mg/kg p.o., 2h) was 3,74±0,13 ml/kg/h. The Flow (Wistar rats; 50 mg/kg p.o., 3h) was 3,34±0,13 ml/kg/h, the Flow (Wistar rats; 50 mg/kg p.o., 4h) was 2,73±0,07 ml/kg/h and the Flow (Wistar rats; 50 mg/kg p.o., 5h) was 2,60±0,08 ml/kg/h. For the same compound, the Flow (Wistar rats; 50 mg/kg p.o., 6h) was 2,25±0,09 ml/kg/h, the Flow (Wistar rats; 100 mg/kg i.d., 0 (base hour)) was 2,53±0,09 ml/kg/h and the Flow (Wistar rats; 100 mg/kg i.d., 1 h) was 6,61±0,27 ml/kg/h. For the same compound, the Flow (Wistar rats; 100 mg/kg i.d., 2 h) was 5,94±0,23 ml/kg/h, the Flow (Wistar rats; 100 mg/kg i.d., 3 h) was 4,12±0,14 ml/kg/h and the Flow (Wistar rats; 100 mg/kg i.d., 4 h) was 3,23±0,07 ml/kg/h. For the same compound, the Flow (Wistar rats; 100 mg/kg i.d., 5 h) was 2,74±0,06 ml/kg/h, the Flow (Wistar rats; 100 mg/kg i.d., 6 h) was 2,23±0,06 ml/kg/h and the Flow (Wistar rats; 100 mg/kg p.o., 0 (base hour)) was 2,40±0,23 ml/kg/h. The Flow (Wistar rats; 100 mg/kg p.o., 1h) was 4,44±0,28 ml/kg/h, the Flow (Wistar rats; 100 mg/kg p.o., 2h) was 4,95±0,39 ml/kg/h and the Flow (Wistar rats; 100 mg/kg p.o., 3h) was 4,10±0,32 ml/kg/h. The Flow (Wistar rats; 100 mg/kg p.o., 4h) was 3,10±0,31 ml/kg/h, the Flow (Wistar rats; 100 mg/kg p.o., 5h) was 2,79±0,23 ml/kg/h and the Flow (Wistar rats; 100 mg/kg p.o., 6h) was 2,33±0.25 ml/kg/h. The “Peak choleresis time of appearance” value (Wistar rats; 200 mg/kg p.o. (dose given for 1620 only)) was 2nd hour, the “Peak choleresis % increase” value (Wistar rats; 200 mg/kg p.o. (dose given for 1620 only), increase over controls as percentage of base choleresis) was 135% and the Duration index (Wistar rats; 200 mg/kg p.o. (dose given for 1620 only), time for halving the maximum choleresis increase) was 240'. The Flow (Wistar rats; 200 mg/kg p.o., 0 (base hour)) was 2,46±0,12 ml/kg/h, the Flow (Wistar rats; 200 mg/kg p.o., 1h) was 5,53±0,30 ml/kg/h and the Flow (Wistar rats; 200 mg/kg p.o., 2h) was 5,78±0,29 ml/kg/h. The Flow (Wistar rats; 200 mg/kg p.o., 3h) was 5,02±0,34 ml/kg/h, the Flow (Wistar rats; 200 mg/kg p.o., 4h) was 4,77±0,57 ml/kg/h and the Flow (Wistar rats; 200 mg/kg p.o., 5h) was 4,19±0,25 ml/kg/h. For the same compound, the Flow (Wistar rats; 200 mg/kg p.o., 6h) was 3,39±0,14 ml/kg/h, the “ml of bile flow ± s.e.” value (Wistar rats; oral by gastric probe 25 mg/kg, 0 (base values)) was 2,6±0,20 ml and the “ml of bile flow ± s.e.” value (Wistar rats; oral by gastric probe 25 mg/kg, 1 h) was 3,2±0,14 ml. The “ml of bile flow ± s.e.” value (Wistar rats; oral by gastric probe 25 mg/kg, 2 h) was 2,7±0,10 ml, the “ml of bile flow ± s.e.” value (Wistar rats; oral by gastric probe 25 mg/kg, 3 h) was 2,6±0,21 ml and the “ml of bile flow ± s.e.” value (Wistar rats; oral by gastric probe 25 mg/kg, 4 h) was 1,9±0,11 ml. For the same compound, the “ml of bile flow ± s.e.” value (Wistar rats; oral by gastric probe 25 mg/kg, 5 h) was 1,6±0,20 ml, the “ml of bile flow ± s.e.” value (Wistar rats; oral by gastric probe 25 mg/kg, 6 h) was 1,6±0,21 ml and the “ml of bile flow ± s.e.” value (Wistar rats; oral by gastric probe 50 mg/kg, 0 (base values)) was 2,8±0,19 ml. For the same compound, the “ml of bile flow ± s.e.” value (Wistar rats; oral by gastric probe 50 mg/kg, 1 h) was 3,7±0,31 ml, the “ml of bile flow ± s.e.” value (Wistar rats; oral by gastric probe 50 mg/kg, 2 h) was 3,4±0,22 ml and the “ml of bile flow ± s.e.” value (Wistar rats; oral by gastric probe 50 mg/kg, 3 h) was 3,2±0,19 ml. The “ml of bile flow ± s.e.” value (Wistar rats; oral by gastric probe 50 mg/kg, 4 h) was 3,0±0,18 ml, the “ml of bile flow ± s.e.” value (Wistar rats; oral by gastric probe 50 mg/kg, 5 h) was 2,8±0,14 ml and the “ml of bile flow ± s.e.” value (Wistar rats; oral by gastric probe 50 mg/kg, 6 h) was 2,2±0,18 ml. The “ml of bile flow ± s.e.” value (Wistar rats; oral by gastric probe 100 mg/kg, 0 (base values)) was 2,5±0,16 ml, the “ml of bile flow ± s.e.” value (Wistar rats; oral by gastric probe 100 mg/kg, 1 h) was 4,8±0,26 ml and the “ml of bile flow ± s.e.” value (Wistar rats; oral by gastric probe 100 mg/kg, 2 h) was 3,7±0,31 ml. The “ml of bile flow ± s.e.” value (Wistar rats; oral by gastric probe 100 mg/kg, 3 h) was 3,5±0,20 ml, the “ml of bile flow ± s.e.” value (Wistar rats; oral by gastric probe 100 mg/kg, 4 h) was 3,2±0,32 ml and the “ml of bile flow ± s.e.” value (Wistar rats; oral by gastric probe 100 mg/kg, 5 h) was 2,9±0,22 ml. For the same compound, the “ml of bile flow ± s.e.” value (Wistar rats; oral by gastric probe 100 mg/kg, 6 h) was 2,7±0,23 ml, the LD50 [1, 3] was 1340 mg/kg and the LD50 [1, 4] was 1720 mg/kg. For the same compound, the LD50 [2, 3] was 1380 mg/kg, the LD50 [2, 4] was 1660 mg/kg and the “Tolerability on prolonged administration” value (rat) was “well tolerated”.
